Reference: patent US11053251B2, “GPR35 modulators” (Prometheus Biosciences, Inc., priority 2019, dated 2021)
pEC50: −log10 of the molar value.

Columns and labels:
Human GPR35 [1] = target: Human GPR35 (Homo sapiens, UniProt Q9HC97); assay: Beta-Arrestin Assay (Tango U2OS cells, LiveBLAzer-FRET B/G); assay type: cell-based; conditions: Human GPR35 expressing Tango U2OS cells, 5 hours treatment
Summary of the method: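 Tango U2OS cells expressing GPR35 were plated at 10,000 cells/well overnight, then treated with serially diluted compounds for 5 h. Beta-arrestin recruitment was read by LiveBLAzer-FRET B/G after a 2 h substrate incubation, with zaprinast as positive control. EC50 came from a four-parameter dose-response fit.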

Human GPR35 [2] = target: Human GPR35 (Homo sapiens, UniProt Q9HC97, S294R); assay: Alternative Beta-Arrestin Assay (JumpIn 294R Tango U2OS cells, LiveBLAzer-FRET B/G); assay type: cell-based; conditions: Human GPR35 expressing JumpIn 294R Tango U2OS cells, 5 hours treatment
Summary of the method: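 U2OS Tango cells expressing human GPR35 S294R, plated overnight, exposed to serially diluted compounds for 5 hours. β-lactamase reporter read with LiveBLAzer-FRET B/G (CCF4-AM) after 2 h; EC50 from four-parameter fit, zaprinast as positive control.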

Chain of Human GPR35 (Homo sapiens, UniProt Q9HC97) (Q9HC97 whole entry): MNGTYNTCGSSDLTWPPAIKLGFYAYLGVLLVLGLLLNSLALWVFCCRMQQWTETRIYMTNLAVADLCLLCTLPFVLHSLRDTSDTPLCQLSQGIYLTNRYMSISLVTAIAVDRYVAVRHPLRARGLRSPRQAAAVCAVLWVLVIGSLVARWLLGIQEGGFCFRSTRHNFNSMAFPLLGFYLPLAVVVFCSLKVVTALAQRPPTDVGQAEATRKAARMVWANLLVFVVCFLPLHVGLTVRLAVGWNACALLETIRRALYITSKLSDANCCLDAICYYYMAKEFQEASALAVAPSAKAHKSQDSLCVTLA
Chain of Human GPR35 (Homo sapiens, UniProt Q9HC97, S294R) (Q9HC97 whole entry S294R): as the sequence (Q9HC97 whole entry) above, with S294R counted along it

CCOc1cc(C(=O)Nc2ccccn2)ccc1-c1nc2[nH]nnc2c(=O)[nH]1 [Compound 140, 3-ethoxy-4-(7-oxo-6,7-dihydro-3H-[1,2,3]triazolo[4,5-d]pyrimidin-5-yl)-N-(pyridin-2-yl)benzamide]
pEC50 (Human GPR35 [1]): ≥ 5.00
pEC50 (Human GPR35 [2]): ≥ 5.00

CCOc1cc(Cc2ccccc2C(=O)O)ccc1-c1nc2[nH]nnc2c(=O)[nH]1 [Compound 175, 2-(3-ethoxy-4-(7-oxo-6,7-dihydro-3H-[1,2,3]triazolo[4,5-d]pyrimidin-5-yl)benzyl)benzoic acid]
pEC50 (Human GPR35 [1]): ≥ 5.00
pEC50 (Human GPR35 [2]): ≥ 5.00

CCOc1cc(N2CC[C@H](C(=O)O)C2)ccc1-c1nc2[nH]nnc2c(=O)[nH]1 [Compound 166, (S)-1-(3-ethoxy-4-(7-oxo-6,7-dihydro-3H-[1,2,3]triazolo[4,5-d]pyrimidin-5-yl)phenyl)pyrrolidine-3-carboxylic acid]
pEC50 (Human GPR35 [1]): ≥ 5.00
pEC50 (Human GPR35 [2]): ≥ 5.00

CCOc1cc(C(=O)NC2CCCC2)ccc1-c1nc2nn[nH]c2c(=O)[nH]1 [Compound 136, N-Cyclopentyl-3-ethoxy-4-(7-oxo-6,7-dihydro-3H-[1,2,3]triazolo[4,5-d]pyrimidin-5-yl)benzamide]
pEC50 (Human GPR35 [1]): ≥ 5.00
pEC50 (Human GPR35 [2]): 4.30 to 5.00

CCOc1cc(N2CCC[C@@H]2C(=O)O)ccc1-c1nc2[nH]nnc2c(=O)[nH]1 [Compound 163, (3-ethoxy-4-(7-oxo-6,7-dihydro-3H-[1,2,3]triazolo[4,5-d]pyrimidin-5-yl)phenyl)-D-proline]
pEC50 (Human GPR35 [1]): ≥ 5.00
pEC50 (Human GPR35 [2]): ≥ 5.00

CCOc1cc(C(=O)Nc2cccnc2)ccc1-c1nc2[nH]nnc2c(=O)[nH]1 [Compound 141, 3-ethoxy-4-(7-oxo-6,7-dihydro-3H-[1,2,3]triazolo[4,5-d]pyrimidin-5-yl)-N-(pyridin-3-yl)benzamide]
pEC50 (Human GPR35 [1]): ≥ 5.00
pEC50 (Human GPR35 [2]): ≥ 5.00

CCOc1cc(-c2cccc(OCC(=O)O)c2)ccc1-c1nc2[nH]nnc2c(=O)[nH]1 [Compound 121, 2-((3′-Ethoxy-4′-(7-oxo-6,7-dihydro-3H-[1,2,3]triazolo[4,5-d]pyrimidin-5-yl)-[1,1′-biphenyl]-3-yl)oxy)acetic acid]
pEC50 (Human GPR35 [1]): ≥ 5.00
pEC50 (Human GPR35 [2]): ≥ 5.00

CCOc1cc(-c2ccc(F)c(C(=O)O)c2)ccc1-c1nc2[nH]nnc2c(=O)[nH]1 [Compound 183, 3′-ethoxy-4-fluoro-4′-(7-oxo-6,7-dihydro-3H-[1,2,3]triazolo[4,5-d]pyrimidin-5-yl)-[1,1′-biphenyl]-3-carboxylic acid]
pEC50 (Human GPR35 [1]): ≥ 5.00
pEC50 (Human GPR35 [2]): ≥ 5.00

CCOc1cc(CO)ccc1-c1nc2[nH]nnc2c(=O)[nH]1 [Compound 145, 5-(2-ethoxy-4-(hydroxymethyl)phenyl)-3,6-dihydro-7H-[1,2,3]triazolo[4,5-d]pyrimidin-7-one]
pEC50 (Human GPR35 [1]): ≥ 5.00
pEC50 (Human GPR35 [2]): ≥ 5.00

CCOc1cc(Cc2ccccc2)ccc1-c1nc2[nH]nnc2c(=O)[nH]1 [Compound 174, 5-(4-benzyl-2-ethoxyphenyl)-3,6-dihydro-7H-[1,2,3]triazolo[4,5-d]pyrimidin-7-one]
pEC50 (Human GPR35 [1]): ≥ 5.00
pEC50 (Human GPR35 [2]): ≥ 5.00

CCOc1cc(-c2ncccn2)ccc1-c1nc2[nH]nnc2c(=O)[nH]1 [Compound 103, 5-(2-Ethoxy-4-(pyrimidin-2-yl)phenyl)-3,6-dihydro-7H-[1,2,3]triazolo[4,5-d]pyrimidin-7-one]
pEC50 (Human GPR35 [1]): ≥ 5.00
pEC50 (Human GPR35 [2]): ≥ 5.00

CCOc1cc(-c2ccc(OC)c(C(=O)O)c2)ccc1-c1nc2[nH]nnc2c(=O)[nH]1 [Compound 182, 3′-ethoxy-4-methoxy-4′-(7-oxo-6,7-dihydro-3H-[1,2,3]triazolo[4,5-d]pyrimidin-5-yl)-[1,1′-biphenyl]-3-carboxylic acid]
pEC50 (Human GPR35 [1]): ≥ 5.00
pEC50 (Human GPR35 [2]): ≥ 5.00

CCOc1cc(C(=O)NS(=O)(=O)N(C)C)ccc1-c1nc2[nH]nnc2c(=O)[nH]1 [Compound 152, N-(N,N-dimethylsulfamoyl)-3-ethoxy-4-(7-oxo-6,7-dihydro-3H-[1,2,3]triazolo[4,5-d]pyrimidin-5-yl)benzamide]
pEC50 (Human GPR35 [1]): ≥ 5.00
pEC50 (Human GPR35 [2]): ≥ 5.00
